Consider 2 compounds from patent US20080312326A1, “Method for the Prevention and/or Treatment of Neurodegenerative Diseases Characterized by Administering and Ep1 Receptor Antagonist” (THE JOHN HOPKINS UNIVERSITY, priority 2005, published 2008).

Assay [1] relates to NMDA-induced brain lesion in C57BL/6 mice. Nature of the assay: NMDA-induced brain lesion after ICV pretreatment, wildtype mice. The note with it: for brain lesion volume (NMDA-induced): lesion at 48 h, vs NMDA-lesion and vehicle-NMDA groups. The format is in vivo. The method, then:
(§1) Following protocols approved by the Institutional Animal Care and Use Committee of Johns Hopkins University, adult male C57BL/6 mice (Charles River, Wilmington, Mass.) and EP1^−/−, weighing 20-25 g were used in this study.
Weight and rectal temperature of each mouse was recorded before the surgical procedure. The mouse was subjected to intracerebroventricular (ICV) injection of vehicle or freshly prepared compound A or compound B followed by unilateral intrastriatal injection of NMDA, prepared in phosphate buffer saline (pH˜7.2) (J. Neurosci. 1997, 17, 6908-6917). In brief, each mouse was anesthetized, maintained at 1.0% halothane, and mounted on a stereotaxic frame (Stoelting Co., Wood Dale, Ill.). Varying body-weight (BW) doses of compound A (0.1 nmol/kg BW, n=8; 1 nmol/kg BW, n=12; 10 nmol/kg BW, n=8) or compound B (0.1 nmol/kg BW, n=8; 1 nmol/kg BW, n=12; 10 nmol/kg BW, n=9) were injected into the right lateral ventricle (stereotaxic coordinates PA-0.5 mm, lateral-1.0 mm from bregma, and ventral-2.5 mm relative to dura) over 30 sec, with the help of 1-μL Hamilton® syringe, and the needle was left in place for an additional 2 min. Twenty minutes later, 0.3 μl of 50 mM NMDA was injected into the right striatum over 2 min and the needle was left in place for additional 5 min. The NMDA-lesion control group (n=12) received 0.3 μL NMDA, and the vehicle-NMDA control group (n=11) received 0.2 μL vehicle ICV, followed by 0.3 μL NMDA in the striatum. Sham control and vehicle control groups were treated similarly with saline. After injections, mice were placed in a thermoregulated chamber maintained at 31° C. and returned to their cages after full recovery from anesthesia. Throughout the experimental procedure, rectal temperature of mice was monitored and maintained at 37.0±0.5° C.
At 48 h […], weight and rectal temperature were recorded and brains were harvested and immediately frozen in 2-methyl butane (pre-cooled over dry ice). Brain sections were cut on a cryostat and stained with cresyl violet to estimate lesion volume. Images of the brain sections were taken and analyzed with the help of SigmaScan Pro 5.0 (Systat, Inc., Point Richmond, Calif.).
Data were analyzed using SigmaStat 2.0 (Systat), and significance level was set at p<0.05. Statistical analysis was performed by Student's t-test. All data are reported as means±s.d.

Assay [2] deals with NMDA-induced toxicity in EP1−/− mice. Nature of the assay: NMDA-induced brain lesion after ICV treatment, EP1−/− mice. The format is in vivo. The note with it: ICV treatment of EP1−/− mice, compared to the untreated EP1−/− group. The method, then:
as §1
Weight and rectal temperature of each mouse was recorded before the surgical procedure. The mouse was subjected to intracerebroventricular (ICV) injection of vehicle or freshly prepared compound A or compound B followed by unilateral intrastriatal injection of NMDA, prepared in phosphate buffer saline (pH˜7.2) (J. Neurosci. 1997, 17, 6908-6917). In brief, each mouse was anesthetized, maintained at 1.0% halothane, and mounted on a stereotaxic frame (Stoelting Co., Wood Dale, Ill.). […] Throughout the experimental procedure, rectal temperature of mice was monitored and maintained at 37.0±0.5° C.
At 48 h […], weight and rectal temperature were recorded and brains were harvested and immediately frozen in 2-methyl butane (pre-cooled over dry ice). […] Images of the brain sections were taken and analyzed with the help of SigmaScan Pro 5.0 (Systat, Inc., Point Richmond, Calif.).
Data were analyzed using SigmaStat 2.0 (Systat), and significance level was set at p<0.05. […]

[3] abbreviates: 0.1 nmol/kg BW ICV pretreatment 20 min before intrastriatal 50 mM NMDA.
The mark [4] stands for this setting: 1 nmol/kg BW ICV pretreatment 20 min before intrastriatal 50 mM NMDA.
The mark [5] stands for this setting: 10 nmol/kg BW ICV pretreatment 20 min before intrastriatal 50 mM NMDA.

Turning to `CCCC[C@H](C)C[C@H](O)/C=C/[C@H]1[C@H](O)CC(=O)[C@@H]1CC(=O)C1CCC(C(=O)O)CC1` (stereo partly drawn) [compound A, 4-({(1R,2R,3R)-3-hydroxy-2-[(1E,3S,5S)-3-hydroxy-5-methylnon-1-enyl]-5-oxocyclopentyl}acetyl)cyclohexanecarboxylic acid, reference compound], the entries for the “brain lesion volume (NMDA-induced)” value in assay [1] (setting [3]), in assay [1] (setting [4]) and in assay [1] (setting [5]) were “non-significant increases”, “non-significant increases” and “significant increase”, respectively.
As for `CC(C)CN(c1ccc(C(F)(F)F)cc1OCc1ccc(/C=C/C(=O)O)cc1)S(=O)(=O)c1ccco1` [compound B, (2E)-3-(4-{[2-[(2-furylsulfonyl)(isobutyl)amino]-5-(trifluoromethyl)phenoxy]methyl}phenyl)acrylic acid], the “brain lesion volume (NMDA-induced)” value in assay [1] (setting [3]) is reported as “No significant protection”; in assay [1] (setting [4]), “significantly decreased”; in assay [1] (setting [5]), “significantly decreased”. The “toxicity (lesion volume) of the 10 nmol/kg BW dose compared to the 1 mmol/kg BW group” value in assay [1] (10 nmol/kg BW ICV pretreatment, NMDA-induced lesion) is given as “slight, but not significant, toxicity”. In addition, in assay [2], the “lesion volume to NMDA-induced toxicity in EP1−/− mice” value is “no significant difference”.
